Reference: patent US4418077A, “Fluorinated amino-butyric acid and diaminobutane derivatives” (Merrell Toraude et Compagnie, priority 1980, dated 1983)

Columns and labels:
Format in all cases: in vivo
GABA-T = GABA-T activity in brain of mice after four daily i.p. doses; conditions: brain 24 hours after last dose
Method: (§1) A group of 10 male albino CD1 mice from Charles Riner, France, is given an i.p. injection of the test compound in aqueous solution daily for four consecutive days. Half of the animals are killed by decapitation 24 hours after the last dose fo the test compound. The other half of the animals are observed for up to 12 days for toxicity (as indicated by weight loss and deaths). Control animals receive an injection of the vehicle only.
(§2) The brains are removed from the dead mice and are divided into two portions by sagittal section. One half is used for the measurement of GABA-T activity while the other is used for measuring GABA content. The GABA-T activity is measured using known methods as described by M. Jung et al., J. Neurochem., 28, 717 (1977) and 29, 797 (1977), GABA content is measured by perchloric acid or trichloroacetic acid extracts using an amino acid analyzer equiped with a fluoresence detector.

mice = test: Toxicity in mice (weight loss and deaths), observed up to 12 days; conditions: i.p.
Method: as §1

[1] = as above; conditions: mouse, in vivo, ip, daily dose 1 mg/kg for 4 days, observed up to 12 days, read-out: Mortality (After Treatment)
Method: as §1

brain GABA = test: GABA content of brain of mice after four daily i.p. doses; conditions: brain 24 hours after last dose
Method: as §1, §2

[2] = daily dose 2.5 mg/kg for 4 days

With `NC(CF)C(F)C(=O)O` (stereo not drawn) [2,4-difluoro-3-amino-butyric acid, 2,4-DIFLUORO-3-AMINO-BUTYRIC ACID] the “GABA-T Inhibition (%)” value (GABA-T; daily dose 1 mg/kg for 4 days) was 50%, the “GABA-T Inhibition (%)” value (GABA-T; [2]) was 83% and the “GABA-T Inhibition (%)” value (GABA-T; daily dose 5 mg/kg for 4 days) was 87%. The “Weight Loss %” value (mice; daily dose 1 mg/kg for 4 days) was 0%, the “Weight Loss %” value (mice; [2]) was -5% and the “Mortality (After Treatment)” value (mice; daily dose 2.5 mg/kg for 4 days, deaths by day 6) was 2/5. The “Weight Loss %” value (mice; daily dose 5 mg/kg for 4 days) was -25%, the “Mortality (After Treatment)” value (mice; daily dose 5 mg/kg for 4 days, deaths by day 7) was 5/5 and the mortality at 288 h [1] was 0%. For the same molecule, the “GABA Elevation (%)” value (brain GABA; daily dose 1 mg/kg for 4 days) was 150%, the “GABA Elevation (%)” value (brain GABA; [2]) was 225% and the “GABA Elevation (%)” value (brain GABA; daily dose 5 mg/kg for 4 days) was 250%.
